Experiment [1] addresses T1, BAZ2B bromodomain (Homo sapiens, UniProt Q9UIF8).
T1 sequence (Q9UIF8 1868-1972 isoform Q9UIF8-4): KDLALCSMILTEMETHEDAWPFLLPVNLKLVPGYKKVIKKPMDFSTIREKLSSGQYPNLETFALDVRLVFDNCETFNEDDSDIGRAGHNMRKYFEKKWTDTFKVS
The experiment in a line: ITC of H3K14ac peptides binding to BAZ2B bromodomain.

Experiment [2] has as its target T1, BAZ2B bromodomain. The following applies: acetylated lysine alone; cited from earlier work.

Data on four molecules can be found in publication PMC4458377 (Biochemistry, 2014).

For the molecule `CC(=O)NCCCC[C@H](NC(=O)CNC(=O)CNC(=O)[C@@H](NC(=O)[C@H](CO)NC(C)=O)[C@@H](C)O)C(=O)N[C@@H](C)C(=O)N1CCC[C@H]1C(=O)N[C@@H](CCCNC(=N)N)C(=O)N[C@@H](CCCCN)C(N)=O` [Peptide 1], the affinity in experiment [1], expressed as Kd, was 45 ± 3.3 µM. In addition, the “reduction in affinity relative to Peptide 4” value in experiment [1] (ITC KD ratio) came to 2 fold. Take `CC(=O)NCCCC[C@H](NC(=O)CNC(=O)CNC(=O)[C@@H](NC(=O)[C@H](CO)NC(=O)[C@H](CCCCN)NC(C)=O)[C@@H](C)O)C(=O)N[C@@H](C)C(=O)N1CCC[C@H]1C(=O)N[C@@H](CCCNC(=N)N)C(=O)N[C@@H](CCCCN)C(=O)N[C@@H](CCC(N)=O)C(N)=O` [Peptide 3]: binding in experiment [1] was characterised by a dissociation constant (Kd) of 15.7 ± 1.1 µM. As for `CC(=O)NCCCC[C@H](N)C(=O)O` [Acetylated lysine, N-ε-acetyl lysine], in experiment [2], the “interaction with BAZ2B bromodomain” value is “interact only very weakly”. Regarding Ac-KSTGGK(Ac)APRK-NH2 [Peptide 4], the Kd (commonly a measure of binding affinity in units of concentration) in experiment [1] stood at 21.8 ± 1.4 µM.
